Test results taken from US6828343B2, “Bicyclic pyrrolyl amides as glycogen phosphorylase inhibitors” (Pfizer, Inc., priority 1999, dated 2004).

melting point: 108 to 110 °C
SMILES: O=C(N[C@@H](Cc1ccccc1)C(=O)N1CCOCC1)c1cc2cc(Cl)sc2[nH]1 [Example 19, 2-chloro-6H-thieno[2,3-b]pyrrole-5-carboxylic acid [(1S)-benzyl-2-morpholin-4-yl-2-oxo-ethyl]-amide]
